From article PMC3759900, “Acetylcholinesterase Reactivators (HI-6, Obidoxime, Trimedoxime, K027, K075, K127, K203, K282): Structural Evaluation of Human Serum Albumin Binding and Absorption Kinetics” (International Journal of Molecular Sciences, 2013)

What was measured:
[1] = target: Human Serum Albumin (HSA) (Homo sapiens, UniProt P02768); test: HSA binding by ultrafiltration (Centrifree) and HPLC; conditions: HSA 45 g/L in phosphate buffer saline, 90 min at 37 °C, mean of three independent measurements
Chain of Human Serum Albumin (HSA) (P02768 25-609): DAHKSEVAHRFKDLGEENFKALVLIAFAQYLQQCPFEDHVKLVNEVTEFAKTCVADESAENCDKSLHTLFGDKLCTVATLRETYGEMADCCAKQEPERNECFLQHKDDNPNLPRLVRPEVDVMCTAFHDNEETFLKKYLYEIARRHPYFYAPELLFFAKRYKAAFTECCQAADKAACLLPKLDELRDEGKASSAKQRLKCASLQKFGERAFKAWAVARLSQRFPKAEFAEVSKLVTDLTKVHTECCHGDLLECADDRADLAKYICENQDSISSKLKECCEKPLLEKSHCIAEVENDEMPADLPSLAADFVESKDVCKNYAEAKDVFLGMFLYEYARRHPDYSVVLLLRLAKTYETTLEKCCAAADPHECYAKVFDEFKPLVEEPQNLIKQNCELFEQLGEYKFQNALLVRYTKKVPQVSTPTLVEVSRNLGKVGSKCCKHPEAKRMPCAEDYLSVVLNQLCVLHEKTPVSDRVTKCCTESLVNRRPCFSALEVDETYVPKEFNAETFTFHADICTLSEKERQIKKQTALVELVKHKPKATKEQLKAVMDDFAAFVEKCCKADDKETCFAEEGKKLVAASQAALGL

[2] = Pharmacokinetic study, plasma concentration after i.m. injection (HPLC); conditions: male Wister rats, description of plasma kinetic curves

Structure (SMILES) | Binding to Human Serum Albumin (HSA) [1] [%] | Elimination from blood (kinetic curve profile) [2]
NC(=O)c1cc[n+](CCOCC[n+]2ccc(C=NO)cc2)cc1 [K127] | 4 | –
ON=Cc1cc[n+](C/C=C\C[n+]2ccc(C=NO)cc2)cc1 [K282] | 12 | –
NC(=O)c1cc[n+](COC[n+]2ccccc2/C=N/O)cc1 [HI-6] | 1 | slow elimination from the blood
O/N=C/c1cc[n+](COC[n+]2ccc(/C=N/O)cc2)cc1 [Obidoxime, obidoxime] | – | relatively fast elimination
NC(=O)c1cc[n+](CCC[n+]2ccc(/C=N/O)cc2)cc1 [K027] | 5 | –
NC(=O)c1cc[n+](C/C=C/C[n+]2ccc(/C=N/O)cc2)cc1 [K203] | 15 | –
O/N=C/c1cc[n+](CCC[n+]2ccc(/C=N/O)cc2)cc1 [Trimedoxime, trimedoxime] | 6 | slow elimination from the blood
O/N=C/c1cc[n+](C/C=C/C[n+]2ccc(/C=N/O)cc2)cc1 [K075] | 10 | –
